One data set relates to asthma. Particulars: clinical test, Lilly; Evans D J, Thorax 1996; cited from earlier work.
Another data set deals with bronchial asthma. Particulars: Sakurada T. et al., Eur J Pharmacol 1999, cited from earlier work.
The test system of data set [1] is mouse models of ovalbumin-induced asthma. Briefly: Lung histopathological observation and histomorphology. Particulars: for Alveolar Area (proportion of alveolar lumen in lung tissue) / Counts of goblet Cells Brochiole / Counts of goblet Cells Bronchus / Wall Thick. Brochiole / Wall Thick. Bronchus: 18 days, mean ± SD. Format: in vivo. As for the experimental part:
(§1) The benzamidine compound of Chemical Formula 1 was assayed for therapeutic effect on allergic inflammation in mouse models of ovalbumin-induced asthma. Starting at the sensitization with ovalbumin, the administration of the benzamidine compound was for 18 consecutive days. The experimental animals were re-exposed to ovalbumin 15 days after the sensitization and then sacrificed 3 days after the re-exposure. Changes in lung weight, cellular components of peripheral blood and bronchoalveolar lavage fluid, and lung histopathology were observed.
(§2) A total of 20 female C57BL/6 mice (6-week-old, BioGenomics, Korea) was adapted to a laboratory environment for 6 days before being used in earnest experiments. While being housed at a density of five in a plastic cage, the experimental animals were bred in a breeding room with controlled temperature (20 to 25° C.) and humidity (30 to 35%). Under light-dark cycles of 12 hours, mice were allowed to have free access to feedstuff and tap water. While asthma was induced in 15 mice by ovalbumin, 5 mice were used as a non-treated group.
(§3) 100 mg and 200 mg of N-hydroxy-4-{5-[4-(5-isopropyl-2-methyl-1,3-thiazol-4-yl)phenoxy]pentoxy}-benzamidine were completely dissolved in 5 ml of sterilized distilled water. The benzamidine compound in the solutions was orally administered at doses of 100 mg and 200 mg per kg of body weight once a day from the day of the sensitization with ovalbumin. The control group was administered with equal volumes of sterilized distilled water in the same manner.
(§4) A solution of 200 μg of ovalbumin (Grade V; Sigma, St. Louis, Mo., USA) and 180 mg of aluminum hydroxide (Al(OH)3, dried powder gel; Aldrich, Milwaukee, USA) in 4 ml of physiological saline was allowed to stand at 4° C. overnight and was administered to the experimental animals (200 μl, abdominal injection) for sensitization. As for the non-treated group, a solution of only aluminum hydroxide in saline was injected. 15 days after sensitization, a 1.5% ovalbumin solution was sprayed in air using a nebulizer, followed by exposing the experimental animals to the spray for 10 min to induce asthma therein. The non-treated group was exposed only to saline in the same manner. All the experimental animals were sacrificed 3 days after the exposure.
The lungs removed after asthma induction were fixed in 10% neutral formalin and embedded in paraffin. The paraffin-embedded tissue was sliced at a thickness of 3 to 4 μm, stained with hematoxylin-eosin or Masson's trichrome and observed through an optical microscope.
From the lung tissue specimen prepared above, alveolar areas (proportion of alveolar lumen in lung tissue), populations of the goblet cells present in the bronchus and the bronchiole, and wall thicknesses of the bronchus and the bronchiole were examined using an analysis Image processing system (SIS Germany). The alveolar areas are represented as percentages, the populations of the goblets cells in the bronchus and bronchiole as counts per 1,000 cells, and the wall thickness of the bronchus and bronchiole in μm in Table 5.

Data set [2] is described as follows: Change in body weight gain, mouse model of ovalbumin-induced asthma. The data set is classed as in vivo. Particulars: mean ± SD, in g (unit assumed). As for the experimental part: as §1, §2, §3, §4
All the experimental animals were measured for body weight 1, 7, 14, 16 and 17 days after administration. In order to reduce difference among individuals due to feedstuff intake, all experimental animals were starved for 18 hours or more on the beginning day of the administration and on the sacrificing day before weight measurement. To minimize the difference of change in body weight of individual animals, body weight gains during time periods of the sensitization, the asthma induction after exposure and the whole experiment were calculated.

Data set [3] has as its system mouse models of ovalbumin-induced asthma. Kind of data set: Total count of leukocytes in blood and fractional calculation of leukocytes. Format: in vivo. Particulars: 18 days; for Total leukocytes in blood: mean ± SD; for Basophils in blood / Eosinophils in blood / Lymphocytes in blood / Monocytes in blood / Neutrophils in blood: portion per 200 leukocytes. Here is the method:
as §1, §2, §3, §4
On the final day of experiment, all the experimental animals were etherized and underwent laparotomy to expose the abdominal vena cava, from which 1 ml of blood was then taken. Using a hemocytometer, a blood sample was measured for total leukocyte counts in a ×10^3/1 mm^3 unit. Immediately after blood collection, the blood sample was smeared on slide glasses, fixed with methanol, and stained with Giemsa. And then, lymphocytes, eosinophils, neutrophils, monocytes, and basophils were calculated for their respective portions per 200 leukocytes and are represented as percentages in Table 3, below.

For data set [4] the test system is unchanged. Kind of data set: Lung weight, mouse model of ovalbumin-induced asthma. Format: in vivo. Particulars: 18 days, mean ± SD; for Lung Relative Wt.: percentage of body weight. As for the experimental part: as §1, §2, §3, §4
On the final day of experiment, the lungs were separated from adjacent organs. The removed lungs were weighed in grams. To minimize errors due to the difference in body weight among individual animals, the relative weight of the lungs was calculated as a percentage of body weight using the following mathematic formula 1.

For data set [5] the test system is unchanged. Kind of data set: Fractional count of cellular components of bronchoalveolar lavage fluid. Particulars: 18 days, mean ± SD. Format: in vivo. As for the experimental part: as §1, §2, §3, §4
On the final day of experiment, secretions present in bronchi and alveola were examined for cytological constitution. To this end, after being etherized, the experimental animals were operated to open the cervical region and the thorax. The jugular vein was allowed to bleed, followed by endotracheal intubation. 3 ml of phosphate buffered saline was injected twice through the tube and the thorax was massaged for 30 sec to obtain cell suspension from the lungs. The cell suspension was centrifuged at 3000 rpm for 30 min and resuspended in DPBS (Gibco BRL, NY, USA). After the cell suspension was smeared on a slide glass, the cells were stained with Giemsa. A total count of the whole cells present in the smear and fractional counts of neutrophils, eosinophils, basophils, macrophages, and epithelioid cells were measured and are given in Table 4, below.

Consider `CCCc1c(OCCCOc2cc(O)c(-c3ccc(F)cc3)cc2CC)cccc1Oc1ccccc1C(=O)O` [LY293111], for which the “Effect in treating asthma” value with asthma is “ineffective in treating asthma”.

Regarding `COc1ccc(/C=C/CCCCOc2cccc(OCCCCC(=O)O)c2CCC(=O)O)cc1` [ONO-4057], the “Effect on bronchial asthma, in combination” value in the data set on bronchial asthma (in combination with the cysteinyl leukotriene receptor antagonist Zafirlukast) is on record as “medicinal effect on bronchial asthma”. Besides, in the data set with bronchial asthma (used alone), the “Effect on bronchial asthma, used alone” value was “ineffective for the treatment thereof”.

Consider `Cc1nc(-c2ccc(OCCCCCOc3ccc(C(=N)NO)cc3)cc2)c(C(C)C)s1` [Cpd. of Formula 1, N-hydroxy-4-{5-[4-(5-isopropyl-2-methyl-1,3-thiazol-4-yl)phenoxy]pentoxy}-benzamidine], for which, in data set [1] (100 mg/kg orally once a day), the “Alveolar Area (proportion of alveolar lumen in lung tissue)” value is 55.53 ± 4.26 # percentages, the “Counts of goblet Cells Brochiole” value is reported as 53.80 ± 11.73 ## counts per 1,000 cells, the “Counts of goblet Cells Bronchus” value is 317.60 ± 75.46 # counts per 1,000 cells and the “Wall Thick. Brochiole” value was 27.73 ± 4.68 ## μm. Further, the “Wall Thick. Bronchus” value in data set [1] (100 mg/kg orally once a day) is recorded as 60.92 ± 8.53 # μm. Moreover, in data set [1] (200 mg/kg orally once a day), the “Alveolar Area (proportion of alveolar lumen in lung tissue)” value is 61.62 ± 6.93 # percentages, the “Counts of goblet Cells Brochiole” value is listed as 42.80 ± 10.69 # counts per 1,000 cells, the “Counts of goblet Cells Bronchus” value is 256.80 ± 71.58 # counts per 1,000 cells and the “Wall Thick. Brochiole” value is given as 24.79 ± 3.03 # μm. For the same molecule, the “Wall Thick. Bronchus” value in data set [1] (200 mg/kg orally once a day) is 40.69 ± 5.37 # μm. For the same molecule, in data set [1] (compared to the control group, 100 and 200 mg/kg, optical microscope), the “Inflammatory cell populations in tissues around the primary bronchiole and alveola and around bronchial epithelia (FIG. 1)” value is on record as “reduction of the inflammatory cell population in the tissues in a dose-dependent pattern”. In addition, in data set [2] (100 mg/kg orally once a day), the “Body weight gain, Asthma induction period after exposure” value turned out to be 0.34 ± 0.34; the “Body weight gain, Over whole experimental period” value is recorded as 2.68 ± 0.52; the “Body weight gain, Sensitization period” value was determined as 3.50 ± 0.51. In data set [2] (200 mg/kg orally once a day), the “Body weight gain, Asthma induction period after exposure” value worked out at 0.36 ± 0.59; the “Body weight gain, Over whole experimental period” value is 2.90 ± 0.40; the “Body weight gain, Sensitization period” value is recorded as 3.08 ± 0.71. In data set [3] (100 mg/kg orally once a day), the “Total leukocytes in blood” value was 10.68 ± 1.76 ## ×10^3/1 mm^3, the Basophils in blood is reported as 0.10 ± 0.20%, the Eosinophils in blood was 49.60 ± 15.79 % and the Lymphocytes in blood is recorded as 41.70 ± 12.90 %. Also, in data set [3] (100 mg/kg orally once a day), the Monocytes in blood is listed as 3.70 ± 1.60% and the Neutrophils in blood is reported as 4.90 ± 2.90 %. In data set [3] (200 mg/kg orally once a day), the “Total leukocytes in blood” value is 10.44 ± 1.81 ## ×10^3/1 mm^3, the Basophils in blood is on record as 0.00 ± 0.00%, the Eosinophils in blood is listed as 36.90 ± 8.33 # % and the Lymphocytes in blood is 53.80 ± 5.50 # %. Moreover, in data set [3] (200 mg/kg orally once a day), the Monocytes in blood is given as 4.40 ± 1.70 % and the Neutrophils in blood was 5.20 ± 2.00 %. In data set [4] (100 mg/kg orally once a day), the “Lung Absolute Wt.” value is 0.128 ± 0.007 ## g and the “Lung Relative Wt.” value is listed as 0.697 ± 0.030 ## %. Moreover, in data set [4] (200 mg/kg orally once a day), the “Lung Absolute Wt.” value was 0.125 ± 0.008 # g and the “Lung Relative Wt.” value was 0.682 ± 0.030 ## %. Further, in data set [5] (100 mg/kg orally once a day), the “Basophils in bronchoalveolar lavage fluid” value came out at 0.50 ± 0.50%, the “Epithelioids in bronchoalveolar lavage fluid” value came to 21.00 ± 14.77%, the “Lymphocytes in bronchoalveolar lavage fluid” value amounted to 56.90 ± 15.04% and the “Monocytes in bronchoalveolar lavage fluid” value is 3.10 ± 3.73%. In data set [5] (100 mg/kg orally once a day), the “Neutrophils in bronchoalveolar lavage fluid” value worked out at 17.50 ± 8.06 % and the “eosinophils in bronchoalveolar lavage fluid” value is on record as 4.30 ± 1.44 %. In data set [5] (200 mg/kg orally once a day), the “Basophils in bronchoalveolar lavage fluid” value is recorded as 0.10 ± 0.22 %, the “Epithelioids in bronchoalveolar lavage fluid” value came out at 15.50 ± 9.74%, the “Lymphocytes in bronchoalveolar lavage fluid” value came out at 56.80 ± 22.52% and the “Monocytes in bronchoalveolar lavage fluid” value turned out to be 3.50 ± 2.57%. In data set [5] (200 mg/kg orally once a day), the “Neutrophils in bronchoalveolar lavage fluid” value came out at 13.90 ± 9.85% and the “eosinophils in bronchoalveolar lavage fluid” value worked out at 3.60 ± 2.88 %.

These data come from patent publication US20080200526A1, “Composition for the Prevention and Treatment of Allergic Inflammatory Disease” (priority 2004, published 2008).
